In article PMC6792352, “Limited Chemical Structural Diversity Found to Modulate Thyroid Hormone Receptor in the Tox21 Chemical Library” (Environmental Health Perspectives, 2019):

Tests used:
[1] = tested on: thyroid hormone receptor (TR); experiment: Classification of TR actives across characterization assays (TR-Ag / RXR-Ag; TR model binary); set-up: key to Categorization Code: FP, false positive; conditions: for TR_Model_Binary_Agonist / TR_Model_Binary_Antagonist: candidate chemicals in Tables 2 and 3 define actives
Procedure, shortened: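 Pharmaceuticals excluded; actives called from GH3-TRE qHTS (agonist, antagonist, viability) on 8,305 chemicals. Confirmation of 84 selected chemicals used GH3-TRE-Ag, mammalian one-hybrid TRβ and RXRα UAS-bla HEK 293T specificity screens, parental HEK293T viability, and two TR:coactivator recruitment assays.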

estrogen receptor = tested on: estrogen receptor; set-up: method as in Judson et al. 2015; conditions: model values ≥0.1 define actives; ref Judson et al. 2015; cited from earlier work
[2] = tested on: thyroid hormone receptor (endogenous TRα and TRβ); experiment: cells; set-up: species or system GH3-TRE-Luc (rat pituitary); GH3-TRE-Luc luciferase reporter transactivation, agonist mode, qHTS; RXR ligands can also activate indirectly; conditions: 24 h, read-out: TR_LUC_GH3_Agonist_AC50 (uM)
in vitro [3] = experiment: in vitro; set-up: species or system GH3-TRE-Luc (rat pituitary); CellTiter-Fluor viability run in parallel with antagonist mode (1 nM T3), loss of viability; conditions: rat, gh3-tre-luc cells, 1 nM T3 present
[4] = tested on: thyroid hormone receptor (endogenous TRα and TRβ); experiment: cells; set-up: species or system GH3-TRE-Luc (rat pituitary); GH3-TRE-Luc luciferase reporter, antagonist mode against 1 nM T3, loss of signal, qHTS; conditions: 24 h, antagonist mode, 1 nM T3, read-out: AC50 (uM) modified / 1000
[5] = tested on: thyroid hormone receptor (endogenous TRα and TRβ); experiment: cells; set-up: species or system GH3-TRE-Luc (rat pituitary); GH3-TRE-Luc luciferase reporter, antagonist mode against 1 nM T3, loss of signal, qHTS; conditions: 24 h; antagonist mode, 1 nM T3; no GH3 cytotoxicity hit; read-out: Average AC50 (uM) GH3-TRE-Antag
[6] = tested on: thyroid hormone receptor (endogenous TRα and TRβ); experiment: GH3-TRE-Ag primary qHTS, luciferase reporter, agonist mode (TOX21_TR_LUC_GH3_Agonist, aeid 803); assay type: cell-based, rat
[7] = tested on: thyroid hormone receptor (endogenous TRα and TRβ); experiment: GH3-TRE-Ag-Followup confirmation (TOX21_TR_LUC_GH3_Agonist_Followup, aeid 2226); assay type: cell-based, rat
human RXRα = biological target: T1, human RXRα (Homo sapiens, UniProt P19793); experiment: RXRa-bla-Ag mammalian one-hybrid beta-lactamase assay (TOX21_TR_RXR_BLA_Agonist_Followup_ratio, aeid 2253); assay type: cell-based
T1 construct: host or cells: GeneBLAzer UAS-bla HEK 293T
T1 sequence (P19793 227-458 limits assumed): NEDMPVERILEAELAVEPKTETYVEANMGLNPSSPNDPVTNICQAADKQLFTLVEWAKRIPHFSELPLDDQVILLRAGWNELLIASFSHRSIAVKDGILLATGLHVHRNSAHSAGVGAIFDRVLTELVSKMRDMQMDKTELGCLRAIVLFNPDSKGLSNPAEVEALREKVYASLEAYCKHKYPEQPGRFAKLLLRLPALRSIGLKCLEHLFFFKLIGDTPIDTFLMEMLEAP

[8] = biological target: T2, TRα ligand-binding domain (Homo sapiens, UniProt P10827); experiment: TRa-coa LanthaScreen TR-FRET coactivator (SRC-2 peptide) recruitment, agonist (TOX21_TRA_COA_Agonist_Followup_ratio, aeid 2230); assay type: biochemical
T2 construct: the receptor LBDs expressed as glutathione S-transferase (GST) fusion proteins; purchased

luciferase = luciferase (Photinus pyralis, UniProt P08659); experiment: Luciferase inhibition
GH3-TRE-Luc cell line [9] = conditions: read-out: AC50 (uM) modified / 1000; Tox21_110001=Tox21_303049; viability, 1 nM T3 present, 24 h
in vitro [10] = conditions: rat, gh3-tre-luc cells, AC50 (uM) modified / 1000
[11] = biological target: T3, human TRβ ligand-binding domain (Homo sapiens, UniProt P10828); experiment: TRb-bla agonist mammalian one-hybrid beta-lactamase assay (TOX21_TRB_BLA_Agonist_Followup_ratio, aeid 2236); assay type: cell-based; set-up: host or cells: GeneBLAzer UAS-bla HEK 293T
T3 sequence (P10828 217-461 limits assumed): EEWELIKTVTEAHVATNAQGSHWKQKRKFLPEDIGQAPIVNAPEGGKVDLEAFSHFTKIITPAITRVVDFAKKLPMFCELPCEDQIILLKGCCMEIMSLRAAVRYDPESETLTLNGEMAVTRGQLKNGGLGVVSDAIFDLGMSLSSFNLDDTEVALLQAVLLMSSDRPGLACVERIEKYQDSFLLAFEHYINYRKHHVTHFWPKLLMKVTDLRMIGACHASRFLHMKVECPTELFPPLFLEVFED

[12] = biological target: T3, human TRβ ligand-binding domain; experiment: TRb-coa LanthaScreen TR-FRET coactivator (SRC-2 peptide) recruitment, agonist (TOX21_TRB_COA_Agonist_Followup_ratio, aeid 2244); assay type: biochemical; set-up: host or cells: GeneBLAzer UAS-bla HEK 293T
GH3-TRE-Luc cell line [13] = experiment: GH3-TRE-Via cell viability, CellTiter-Fluor (TOX21_TR_LUC_GH3_Antagonist_viability, aeid 805)
[14] = tested on: thyroid hormone receptor (endogenous TRα and TRβ); experiment: GH3-TRE-Antag-Followup confirmation (TOX21_TR_LUC_GH3_Antagonist_Followup, aeid 2227); assay type: cell-based, rat; conditions: Table S3, aeid 2227
[15] = biological target: T3, human TRβ ligand-binding domain; experiment: TRb-bla antagonist mammalian one-hybrid beta-lactamase assay (TOX21_TRB_BLA_Antagonist_Followup, aeid 2238-2240); assay type: cell-based; conditions: for Emax: read-out: resp_max (maximum response value)
[16] = biological target: human retinoid X receptor alpha (RXRα) ligand-binding domain of the GeneBLAzer RXRα-UAS-bla HEK 293T one-hybrid assay (human)

T2 sequence (P10827 163-410 isoform P10827-2 limits assumed, other chains not shown): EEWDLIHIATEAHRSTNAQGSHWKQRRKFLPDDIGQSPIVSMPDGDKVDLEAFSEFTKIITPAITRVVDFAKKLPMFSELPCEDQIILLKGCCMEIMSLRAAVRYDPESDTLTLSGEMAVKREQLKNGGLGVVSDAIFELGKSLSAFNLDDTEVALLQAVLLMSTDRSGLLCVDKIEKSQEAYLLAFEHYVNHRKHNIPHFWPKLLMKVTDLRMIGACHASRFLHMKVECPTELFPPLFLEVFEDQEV
Chain of luciferase (P08659 whole entry, species assumed): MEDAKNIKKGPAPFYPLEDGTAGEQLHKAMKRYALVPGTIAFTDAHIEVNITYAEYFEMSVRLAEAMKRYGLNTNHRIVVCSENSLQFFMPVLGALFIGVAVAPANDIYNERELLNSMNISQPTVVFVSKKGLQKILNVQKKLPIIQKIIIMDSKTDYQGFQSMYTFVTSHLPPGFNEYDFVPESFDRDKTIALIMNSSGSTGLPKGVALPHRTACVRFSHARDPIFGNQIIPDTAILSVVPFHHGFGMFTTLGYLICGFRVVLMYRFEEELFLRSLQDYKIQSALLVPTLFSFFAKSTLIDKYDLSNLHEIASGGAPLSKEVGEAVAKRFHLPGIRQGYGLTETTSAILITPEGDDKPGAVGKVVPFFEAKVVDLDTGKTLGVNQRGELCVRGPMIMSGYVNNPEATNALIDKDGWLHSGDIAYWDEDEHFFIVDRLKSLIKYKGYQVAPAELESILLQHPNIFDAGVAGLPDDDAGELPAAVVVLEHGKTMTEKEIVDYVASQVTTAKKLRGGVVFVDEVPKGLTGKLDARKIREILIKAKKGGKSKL

In the case of `C=C1CCC2CC1C2(C)C` (single isomer, unassigned; (-)) [(-)-beta-Pinene], the TR_Model_Binary_Agonist [1] is given as 0, the TR_Model_Binary_Antagonist [1] is given as 0 and the ER_Model_AUC_Agonist (estrogen receptor) is given as 0. For the same molecule, the ER_Model_AUC_Antagonist (estrogen receptor) was 0.

In the case of `C1=CCC=C1` [1,3-Cyclopentadiene], the AC50 [2] is reported as greater than 90 µM, the CC50 at 24 h (in vitro [3]; AC50 (uM) modified / 1000, Tox21_110001=Tox21_302134, viability) is reported as greater than 90 µM and the AC50 ([4]; Tox21_110001=Tox21_302134) is reported as greater than 90 µM.

In the case of `ClCc1ccccc1` [Benzyl chloride], the AC50 [2] is reported as greater than 90 µM, the CC50 at 24 h (in vitro [3]; AC50 (uM) modified / 1000, Tox21_110001=Tox21_200266, viability) is reported as greater than 90 µM and the AC50 ([4]; Tox21_110001=Tox21_200266) is reported as greater than 90 µM.

In the case of `CCOP(=S)(OCC)SCCl` [Chlormephos], the AC50 [2] is reported as greater than 90 µM, the CC50 at 24 h (in vitro [3]; AC50 (uM) modified / 1000, Tox21_110001=Tox21_300825, viability) is reported as greater than 90 µM and the AC50 ([4]; Tox21_110001=Tox21_300825) is reported as greater than 90 µM.

With `CCS(=O)(=O)CCSP(=O)(OC)OC` [Demeton-S-methylsulphon] the AC50 [2] was greater than 90 µM, the CC50 at 24 h (in vitro [3]; AC50 (uM) modified / 1000, Tox21_110001=Tox21_301575, viability) was greater than 90 µM and the AC50 ([4]; Tox21_110001=Tox21_301575) was greater than 90 µM.

With `CCOP(=O)(CN(CCO)CCO)OCC` [Diethyl((diethanolamino)methyl)phosphonate] the AC50 [2] was greater than 90 µM, the CC50 at 24 h (in vitro [3]; AC50 (uM) modified / 1000, Tox21_110001=Tox21_301894, viability) was greater than 90 µM and the AC50 ([4]; Tox21_110001=Tox21_301894) was greater than 90 µM.

`CCOP(=S)(Oc1ccc([N+](=O)[O-])cc1)c1ccccc1` (centres unmarked) [EPN] gave an AC50 [2] greater than 90 µM, a CC50 at 24 h (in vitro [3]; AC50 (uM) modified / 1000, Tox21_110001=Tox21_300424, viability) greater than 90 µM and an AC50 ([4]; Tox21_110001=Tox21_300424) greater than 90 µM.

Molecule `C[C@]12CC[C@@H]3c4ccc(OC(=O)N(CCCl)CCCl)cc4CC[C@H]3[C@@H]1CC[C@@H]2OP(=O)(O)O` [Estramustine phosphate] has an AC50 [2] greater than 50 µM, an AC50 [5] of 42.9 µM and a CC50 at 24 h (in vitro [3]; AC50 (uM) modified / 1000, Tox21_110001=Tox21_113033, viability) greater than 50 µM.

For `CN(C)c1ccc(N=O)cc1` [N,N-dimethyl-4-nitrosoaniline], the “EMax (% of Control) gh3-tre-agonist” value [6] was 31.0 % of Control, the “GH3-TRE-Ag AC50 hitc” value ([6]; hit call from tcpl) was 1 and the AC50 ([6]; read-out: GH3-TRE-Ag AC50) was 12.3 µM. For the same molecule, the “EMax (% of Control) gh3-tre-agonist-followup-1_agonist” value [7] was 47.7 % of Control, the GH3-TRE-Ag-Followup hitc ([7]; hit call from tcpl) was 1 and the AC50 ([7]; read-out: GH3-TRE-Ag-Followup AC50) was 9.01 µM. The AC50 (human RXRα) was greater than 92 µM, the tr-followup-rxr-bla-agonist-1 hitc (human RXRα; hit call from tcpl) was 0 and the Emax (human RXRα; read-out: EMax (% of Control) tr-followup-rxr-bla-agonist-1) was 1.8%. It also gave an AC50 ([8]; agonist, read-out: TRa-coa AC50) greater than 92 µM, a TRa-coa hitc ([8]; hit call from tcpl, agonist) of 0 and an Emax ([8]; read-out: EMax (% of Control) tra-coa-agonist-followup-1) of -0.217%. For the same molecule, the “Categorization Code” value ([1]; TR agonist characterization) was “FP”, the “luciferase inhibition” value (luciferase) was “luciferase inhibitor” and the CC50 (GH3-TRE-Luc cell line [9]) was 8.37 µM. The CC50 at 24 h (in vitro [10]) was 5.44 µM, the AC50 ([11]; agonist, read-out: TRb-bla AC50) was greater than 92 µM and the TRb-bla hitc ([11]; hit call from tcpl, agonist) was 0. The Emax ([11]; read-out: EMax (% of Control) trb-bla-agonist-followup-1) was 8.4%, the AC50 ([12]; agonist, read-out: TRb-coa AC50) was greater than 92 µM and the TRb-coa hitc ([12]; hit call from tcpl, agonist) was 0. The Emax ([12]; read-out: EMax (% of Control) trb-coa-agonist-followup-1) was -0.165%, the AC50 (GH3-TRE-Luc cell line [13]; Rattus norvegicus, read-out: TR_LUC_GH3_Antagonist_viability AC50 (uM)) was 6.9 µM and the TR_LUC_GH3_Antagonist_viability hitc (GH3-TRE-Luc cell line [13]; hit call from tcpl) was 1.

For `O=C(O)c1cccnc1Nc1cccc(C(F)(F)F)c1` [Niflumic acid], the “flag (text output for the level 6 method)” value [14] was “Borderline inactive”, the hitc [14] was 0 and the “modl_tp (top asymptote for the winning model)” value [14] was 11.5978 percent_activity. For the same molecule, the “resp_max (maximum response value)” value [14] was 41.1677 percent_activity, the hitc ([15]; Table S3, aeid 2238, ch1) was 0 and the Emax ([15]; Table S3, aeid 2238, ch1) was 36.4%. The hitc ([15]; Table S3, aeid 2239, ch2) was 0, the Emax ([15]; Table S3, aeid 2239, ch2) was 24.1% and the hitc ([15]; Table S3, aeid 2240, ratio) was 0. For the same molecule, the Emax ([15]; Table S3, aeid 2240, ratio) was 46.2% and the CC50 at 24 h (in vitro [10]) was greater than 50 µM.

In the case of `CCOP(=S)(OCC)SCSc1cc(Cl)ccc1Cl` [Phenkapton], the AC50 [2] is reported as greater than 90 µM, the CC50 at 24 h (in vitro [3]; AC50 (uM) modified / 1000, Tox21_110001=Tox21_301741, viability) is reported as greater than 90 µM and the AC50 ([4]; Tox21_110001=Tox21_301741) is reported as greater than 90 µM.

For (-)-alpha-Pinene, the TR_Model_Binary_Agonist [1] is given as 0, the TR_Model_Binary_Antagonist [1] is given as 0 and the ER_Model_AUC_Agonist (estrogen receptor) is given as 0. For the same molecule, the ER_Model_AUC_Antagonist (estrogen receptor) was 0.

Molecule Sincalide (peptide) has an RXRa-bla-Ag AC50 (β-lactamase reporter gene, RXRα-UAS-bla HEK 293T mammalian one-hybrid assay, agonist mode) [16] of 10.5 µM.
